Activity calls are given as the source filed them. The rule behind the calls is not given here.
Key:
HT-29 = experiment: Growth inhibition of human HT-29 cells incubated for 48 hrs by sulforhodamine B spectrophotometric assay; format: functional
KB 3-1 [1] = experiment: Induction of apoptosis in human KB 3-1 cells assessed as increase in BIP protein expression incubated for 24 hrs by Western blotting assay; format: functional, cell-based
CCRF-CEM [2] = experiment: Induction of cell cycle arrest in human CCRF-CEM cells assessed as DNA synthesis at 4.14 uM incubated for 2.5 hrs by BrdU incorporation based flow cytometry analysis (reference value: 42.4 +/- 0.66%); format: functional
HOP-92 = experiment: Growth inhibition against human HOP-92 cells assessed as lethal concentration incubated for 48 hrs by sulforhodamine B spectrophotometric assay; format: functional; details: read-out: LC50 (the source's name)
KM12 [3] = experiment: Growth inhibition against human KM12 cells assessed as total growth inhibitory concentration incubated for 48 hrs by sulforhodamine B spectrophotometric assay; format: functional
CCRF-CEM [4] = experiment: Growth inhibition against human CCRF-CEM cells assessed as lethal concentration incubated for 48 hrs by sulforhodamine B spectrophotometric assay; format: functional; details: read-out: LC50 (the source's name)
OVCAR-5 = experiment: Growth inhibition against human OVCAR-5 cells assessed as total growth inhibitory concentration incubated for 48 hrs by sulforhodamine B spectrophotometric assay; format: functional
SNB-75 = experiment: Growth inhibition of human SNB-75 cells incubated for 48 hrs by sulforhodamine B spectrophotometric assay; format: functional
Hs-578T = experiment: Growth inhibition against human Hs-578T cells assessed as total growth inhibitory concentration incubated for 48 hrs by sulforhodamine B spectrophotometric assay; format: functional
RXF 393 = experiment: Growth inhibition against human RXF 393 cells assessed as lethal concentration incubated for 48 hrs by sulforhodamine B spectrophotometric assay; format: functional; details: read-out: LC50 (the source's name)
MDA-MB-231 [5] = experiment: Growth inhibition of human MDA-MB-231 cells incubated for 48 hrs by sulforhodamine B spectrophotometric assay; format: functional
T47D = experiment: Growth inhibition against human T47D cells assessed as total growth inhibitory concentration incubated for 48 hrs by sulforhodamine B spectrophotometric assay; format: functional
786-0 = experiment: Growth inhibition against human 786-0 cells assessed as total growth inhibitory concentration incubated for 48 hrs by sulforhodamine B spectrophotometric assay; format: functional
[6] = Acute toxicity in C57BL/6 mouse assessed as neutrophil count at 20 mg/kg,ip administration and observed after 22 days; format: organism-based; details: in vivo, 528 h, time 22 day
SR = experiment: Growth inhibition of human SR cells incubated for 48 hrs by sulforhodamine B spectrophotometric assay; format: functional
OVCAR-4 = experiment: Growth inhibition against human OVCAR-4 cells assessed as lethal concentration incubated for 48 hrs by sulforhodamine B spectrophotometric assay; format: functional; details: read-out: LC50 (the source's name)
SN12C = experiment: Growth inhibition against human SN12C cells assessed as lethal concentration incubated for 48 hrs by sulforhodamine B spectrophotometric assay; format: functional; details: read-out: LC50 (the source's name)
KB 3-1 [7] = experiment: Induction of cell morphological changes in human KB 3-1 cells at 1 uM incubated for 24 hrs by Hoechst-33342 staining based fluorescent microscopy analysis; format: functional
SK-MEL-5 [8] = experiment: Growth inhibition against human SK-MEL-5 cells assessed as total growth inhibitory concentration incubated for 48 hrs by sulforhodamine B spectrophotometric assay; format: functional
DU-145 = experiment: Anticancer activity against human DU-145 cells assessed as cell growth at 10 uM incubated for 48 hrs by sulforhodamine B assay; format: functional; details: read-out: Activity
[9] = Acute toxicity in C57BL/6 mouse assessed as change in red blood cells at 20 mg/kg,ip administration observed after 22 days; format: organism-based; details: in vivo, 528 h, time 22 day
SNB-19 = experiment: Growth inhibition against human SNB-19 cells assessed as lethal concentration incubated for 48 hrs by sulforhodamine B spectrophotometric assay; format: functional; details: read-out: LC50 (the source's name)
OVCAR-3 = experiment: Growth inhibition against human OVCAR-3 cells assessed as total growth inhibitory concentration incubated for 48 hrs by sulforhodamine B spectrophotometric assay; format: functional
CCRF-CEM [10] = experiment: Induction of cell cycle arrest in human CCRF-CEM cells assessed as RNA synthesis at 20.7 uM incubated for 3 hrs by […] incorporation based flow cytometry analysis (reference value: 31.8 +/- 1.17%); format: functional
SK-OV-3 = experiment: Growth inhibition against human SK-OV-3 cells assessed as lethal concentration incubated for 48 hrs by sulforhodamine B spectrophotometric assay; format: functional; details: read-out: LC50 (the source's name)
[11] = Acute toxicity in C57BL/6 mouse assessed as ratio of spleen weight to body weight at 20 mg/kg,ip administration and observed after 22 days (reference value: 0.53 +/- 0.18); format: organism-based; details: in vivo, 528 h, time 22 day
HCC 2998 = experiment: Growth inhibition of human HCC 2998 cells incubated for 48 hrs by sulforhodamine B spectrophotometric assay; format: functional
CCRF-CEM [12] = experiment: Induction of cell cycle arrest in human CCRF-CEM cells assessed as accumulation of cells at G0/G1 phase at 4.14 uM incubated for 24 hrs by propidium iodide staining based flow cytometry analysis (reference value: 38.68 +/- 0.75%); format: functional
KM12 [13] = experiment: Growth inhibition of human KM12 cells incubated for 48 hrs by sulforhodamine B spectrophotometric assay; format: functional
IGROV-1 = experiment: Growth inhibition against human IGROV-1 cells assessed as total growth inhibitory concentration incubated for 48 hrs by sulforhodamine B spectrophotometric assay; format: functional
MDA-MB-231 [14] = experiment: Induction of mitochondrial membrane potential loss in human MDA-MB-231 cells at 10 uM incubated for 24 hrs by JC-1 staining based flow cytometry analysis; format: functional
NCI-H460 = experiment: Growth inhibition against human NCI-H460 cells assessed as total growth inhibitory concentration incubated for 48 hrs by sulforhodamine B spectrophotometric assay; format: functional
ACHN = experiment: Growth inhibition of human ACHN cells incubated for 48 hrs by sulforhodamine B spectrophotometric assay; format: functional
UO-31 = experiment: Growth inhibition against human UO-31 cells assessed as total growth inhibitory concentration incubated for 48 hrs by sulforhodamine B spectrophotometric assay; format: functional
RPMI-8226 = experiment: Growth inhibition against human RPMI-8226 cells assessed as total growth inhibitory concentration incubated for 48 hrs by sulforhodamine B spectrophotometric assay; format: functional
KB 3-1 [15] = experiment: Induction of apoptosis in human KB 3-1 cells assessed as increase in […] protein expression at 0.5 to 5 uM incubated for 3 hrs by Western blotting assay; format: functional, cell-based; details: dose 0.5-5 µM
MDA-MB-231 [16] = experiment: Growth inhibition against human MDA-MB-231 cells assessed as lethal concentration incubated for 48 hrs by sulforhodamine B spectrophotometric assay; format: functional; details: read-out: LC50 (the source's name)
K562 = experiment: Growth inhibition of human K562 cells incubated for 48 hrs by sulforhodamine B spectrophotometric assay; format: functional
Malme-3M = experiment: Growth inhibition against human Malme-3M cells assessed as total growth inhibitory concentration incubated for 48 hrs by sulforhodamine B spectrophotometric assay; format: functional
SK-MEL-5 [17] = experiment: Growth inhibition against human SK-MEL-5 cells assessed as lethal concentration incubated for 48 hrs by sulforhodamine B spectrophotometric assay; format: functional; details: read-out: LC50 (the source's name)
SK-MEL-5 [18] = experiment: Anticancer activity against human SK-MEL-5 cells assessed as cell growth at 10 uM incubated for 48 hrs by sulforhodamine B assay; format: functional; details: read-out: Activity
NCI-H226 = experiment: Growth inhibition against human NCI-H226 cells assessed as lethal concentration incubated for 48 hrs by sulforhodamine B spectrophotometric assay; format: functional; details: read-out: LC50 (the source's name)
TK-10 = experiment: Growth inhibition against human TK-10 cells assessed as total growth inhibitory concentration incubated for 48 hrs by sulforhodamine B spectrophotometric assay; format: functional

Which GI50 (HT-29) does the source give for `O=C1C2=C(C(=O)c3c(O)cccc31)C(c1ccco1)c1sc(=O)[nH]c1S2` (stereo not drawn) here?
Its GI50 is 3.3 µM.

What about the Activity (KB 3-1 [1]) of the same compound?
Its Activity is “Dose-Dependent Effect”.

What about the Activity (CCRF-CEM [2]) of the same compound?
The Activity was 19.29%.

And the CC50 (HOP-92)?
Its CC50 is 32.5 µM.

What about the TGI (KM12 [3]) of the same compound?
Its TGI is 31.3 µM.

What about the CC50 (CCRF-CEM [4]) of the same compound?
Its CC50 is greater than 100 µM.

What about the TGI (OVCAR-5) of the same compound?
Its TGI is 4.58 µM.

And the GI50 (SNB-75)?
The GI50 was 3.17 µM.

And the TGI (Hs-578T)?
Its TGI is 6.56 µM.

And the CC50 (RXF 393)?
Its CC50 is 20.1 µM.

What about the GI50 (MDA-MB-231 [5]) of the same compound?
Its GI50 is 2.73 µM.

And the TGI (T47D)?
The TGI was 13 µM.

What about the TGI (786-0) of the same compound?
The TGI was 24.2 µM.

And the Activity [6]?
The Activity was 31.21%.

What about the GI50 (SR) of the same compound?
The GI50 was 3.05 µM.

And the CC50 (OVCAR-4)?
The CC50 was 8.71 µM.

And the CC50 (SN12C)?
Its CC50 is 6.99 µM.

And the Activity (KB 3-1 [7])?
The Activity was “Active”.

And the TGI (SK-MEL-5 [8])?
Its TGI is 3 µM.

And the growth at 10 µM (DU-145)?
The growth at 10 µM was -93.9%.

And the Activity [9]?
Its Activity is “Non-Toxic”.

And the CC50 (SNB-19)?
Its CC50 is 26.1 µM.

What about the TGI (OVCAR-3) of the same compound?
Its TGI is 14 µM.

What about the Activity (CCRF-CEM [10]) of the same compound?
Its Activity is 0.07%.

What about the CC50 (SK-OV-3) of the same compound?
The CC50 was 56.5 µM.

And the Ratio [11]?
The Ratio was 0.51.

And the GI50 (HCC 2998)?
The GI50 was 2.5 µM.

What about the Activity (CCRF-CEM [12]) of the same compound?
Its Activity is 34.34%.

And the GI50 (KM12 [13])?
The GI50 was 3.71 µM.

What about the TGI (IGROV-1) of the same compound?
Its TGI is 6.14 µM.

What about the Activity (MDA-MB-231 [14]) of the same compound?
The Activity was 37.3%.

What about the TGI (NCI-H460) of the same compound?
Its TGI is 3.48 µM.

And the GI50 (ACHN)?
Its GI50 is 4.08 µM.

What about the TGI (UO-31) of the same compound?
The TGI was 13.5 µM.

What about the TGI (RPMI-8226) of the same compound?
Its TGI is 9.83 µM.

And the Activity (KB 3-1 [15])?
Its Activity is “inactive”.

And the CC50 (MDA-MB-231 [16])?
The CC50 was greater than 100 µM.

What about the GI50 (K562) of the same compound?
Its GI50 is 2.84 µM.

What about the TGI (Malme-3M) of the same compound?
The TGI was 2 µM.

And the CC50 (SK-MEL-5 [17])?
Its CC50 is 5.68 µM.

And the growth at 10 µM (SK-MEL-5 [18])?
Its growth at 10 µM is -93.4%.

What about the CC50 (NCI-H226) of the same compound?
The CC50 was 27.3 µM.

What about the TGI (TK-10) of the same compound?
Its TGI is 26.4 µM.

Reference: ChEMBL document CHEMBL5360558, “Molecular design, synthesis and anticancer activity of new thiopyrano[2,3-d]thiazoles based on 5-hydroxy-1,4-naphthoquinone (juglone)” (Eur J Med Chem, 2023)
